US8895032B2, “Dendritic nano-antioxidants” (Central Michigan University, priority 2009, dated 2014)

Test system: pBR 322 DNA with Cu2+
Assay: Pro-oxidant effect: oxidation of DNA with copper (II) ion
Details: 10 μM Cu2+, 37° C., 1 h
Experimental: The pro-oxidant effect of compounds 1, 2, and 3 was examined by oxidation of DNA with copper (II) ion. pBR 322 was incubated with 10 μM Cu^2+ at 37° C. for 1 h in the presence of compound 1, 2, or 3 (final concentrations between 0.35 and 45 μM). […] Lane 1 is native DNA, and lanes 2-10 are Cu^2+-oxidized DNA with 0, 45, 23, 11, 5, 3, 1.5, 0.7, and 0.35 μM antioxidant, respectively.
This was performed by co-incubation of DNA (pBR 322), copper (II) ion and antioxidant. […] This ultimately forms DNA-Cu(I)OOH, initiating a free radical cascade by which DNA damage occurs. pBR 322 was incubated with 10 μM Cu^2+ in the presence of antioxidants (0-45 μM) at 37° C. for 1 h and subjected to agarose electrophoresis. […] In FIG. 32, lane 1 is native DNA, and lanes 2-10 are Cu^2+ oxidized DNA with 0, 45, 23, 11, 5, 3, 1.5, 0.7, and 0.35 μM antioxidant, respectively. […] However, it should be noted that physiological concentrations of copper are less than 10-20 μM in plasma and approximately […] for the cation in cells.

Cc1c(C)c2c(c(C)c1O)CCC(C)(C(=O)O)O2 (centres unmarked) [Trolox, 6-hydroxy-2,5,7,8-tetramethylchroman-2-carboxylic acid]
pro-oxidant effect on DNA at the concentrations tested (0.35-45 μM antioxidant): strong pro-oxidant effect equivalent to quercetin
pro-oxidant DNA damage (11-45 μM antioxidant): DNA damage was clearly observed
